This is an account of results in patent US20260103453A1, “NOVEL PYRIMIDINE DERIVATIVE AS BRUTON'S TYROSINE KINASE INHIBITOR” (HANMI PHARM. CO., LTD., priority 2022, published 2026).

BTK enzyme, sequence (Q06187 whole entry): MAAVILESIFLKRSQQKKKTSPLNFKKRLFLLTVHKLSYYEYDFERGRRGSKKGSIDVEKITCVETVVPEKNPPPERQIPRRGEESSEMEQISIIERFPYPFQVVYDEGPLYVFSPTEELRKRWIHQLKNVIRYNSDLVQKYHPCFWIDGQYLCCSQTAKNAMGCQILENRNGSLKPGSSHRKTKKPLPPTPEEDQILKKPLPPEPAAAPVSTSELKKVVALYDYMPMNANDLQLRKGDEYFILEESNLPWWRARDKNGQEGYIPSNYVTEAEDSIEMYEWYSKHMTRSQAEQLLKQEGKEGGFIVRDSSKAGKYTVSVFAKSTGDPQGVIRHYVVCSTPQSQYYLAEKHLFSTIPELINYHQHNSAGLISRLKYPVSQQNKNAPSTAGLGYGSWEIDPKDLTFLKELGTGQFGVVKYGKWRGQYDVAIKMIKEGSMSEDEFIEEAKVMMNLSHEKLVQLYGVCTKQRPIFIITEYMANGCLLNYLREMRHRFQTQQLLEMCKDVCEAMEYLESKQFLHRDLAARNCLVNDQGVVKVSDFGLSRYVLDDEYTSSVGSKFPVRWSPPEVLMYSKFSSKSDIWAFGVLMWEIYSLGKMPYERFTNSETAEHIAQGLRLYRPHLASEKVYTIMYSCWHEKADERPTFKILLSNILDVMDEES

This assay deals with BTK enzyme (Homo sapiens, UniProt Q06187). Nature of the assay: Z'-LYTE kinase assay, BTK enzyme activity inhibition (ThermoFisher SelectScreen). Type of assay: biochemical. The conditions noted are these: 60 minutes reaction at room temperature, compound 1,000 nM to 0.32 nM. The procedure:
To do this, the SelectScreen profiling service was requested to the ThermoFisher company to proceed the Z′-LYTE kinase assay. The simple test method can be summarized as follows.
The compounds prepared in Examples above were each dissolved in DMSO to prepare a 10 mM solution, which was then delivered to the ThermoFisher Scientific company. According to the protocol provided by the ThermoFisher Scientific company, the solution of each compound was diluted in 100% DMSO to a have a concentration of 1,000 nM to 0.32 nM (dilution factor of 1/5). Next, the BTK enzyme was diluted in a kinase buffer (50 mM HEPES (PH 7.5), 10 mM MgCl2, 1 mM EGTA, 0.01% BRIJ-35) to a concentration of up to 10 ng/assay. The test was performed in a low volume 384-well plate (low volume NBS, black 384-well plate). First, 100 nL of the diluted compound solution was added to a sample, and then 2.4 μL of buffer, 5 μL of mixed solution of peptide substrate and kinase at twice (2×) the concentration listed in the protocol, and 2.5 μL of 140 μm ATP solution were added thereto, followed by stirring for 30 seconds. Then, it was allowed for a reaction at room temperature for 60 minutes. Afterwards, 5 μL of a color developing solution was added thereto and stirred for 30 seconds, and fluorescence of the peptide substrate was reacted for 60 minutes. After completion of the reaction, each fluorescence value (400 nm excitation filter, 445/520 nm emission filter) was measured by using a fluorescence plate reader.
As to `C=CC(=O)N(C)CC#Cc1c(N)ncnc1-c1cc(F)cc(NC(=O)c2ccc(C(C)C)cc2F)c1C` [Example 1], the midpoint of inhibition, the IC50, lay at 1.7 nM. In the case of `C=CC(=O)N(C)CC#Cc1c(N)ncnc1-c1cc(F)cc(NC(=O)c2ccc(C3CC3)cc2F)c1C` [Example 2], the half-maximal inhibitory concentration (IC50) was found to be 1.5 nM.

For the compound `C=CC(=O)N(C)CC#Cc1c(N)ncnc1-c1cc(F)cc(N2CCc3cc(C4CC4)cc(F)c3C2=O)c1` [Example 3, N-(3-(4-amino-6-(3-(6-cyclopropyl-8-fluoro-1-oxo-3,4-dihydroisoquinolin-2(1H)-yl)-5-fluorophenyl)pyrimidin-5-yl)prop-2-yn-1-yl)-N-methylacrylamide], the concentration for half-maximal inhibition (IC50) worked out at 3.8 nM. As for `C=CC(=O)N(C)CC#Cc1c(N)ncnc1-c1cc(F)cc(N2CCc3cc(C4CC4)cc(F)c3C2=O)c1C` [Example 4, N-(3-(4-amino-6-(3-(6-cyclopropyl-8-fluoro-1-oxo-3,4-dihydroisoquinolin-2(1H)-yl)-5-fluoro-2-methylphenyl)pyrimidin-5-yl)prop-2-yn-1-yl)-N-methylacrylamide], the figure is 5.3 nM. With `C=CC(=O)N(C)CC#Cc1c(N)ncnc1-c1cc(F)cc(-n2ccc3cc(C4CC4)cc(F)c3c2=O)c1` [Example 5, N-(3-(4-amino-6-(3-(6-cyclo-8-fluoro-1-oxoisoquinolin-2(1H)-yl)-5-fluorophenyl)pyrimidin-5-yl)prop-2-yn-1-yl)-N-methylacrylamide] the figure was 6 nM. `C=CC(=O)N(C)CC#Cc1c(N)ncnc1-c1cc(F)cc(-n2ccc3cc(C4CC4)cc(F)c3c2=O)c1C` [Example 6, N-(3-(4-amino-6-(3-(6-cyclopropyl-8-fluoro-1-oxoisoquinolin-2(1H)-yl)-5-fluoro-2-methylphenyl)pyrimidin-5-yl)prop-2-yn-1-yl)-N-methylacrylamide] yielded an IC50 of 3 nM. `C=CC(=O)N(C)CC#Cc1c(N)ncnc1-c1cc(F)cc(-n2ccc3cc(C4CC4)cc(F)c3c2=O)c1F` [Example 7, N-(3-(4-amino-6-(3-(6-cyclopropyl-8-fluoro-1-oxoisoquinolin-2(1H)-yl)-2,5-difluorophenyl)pyrimidin-5-yl)prop-2-yn-1-yl)-N-methylacrylamide] displayed a half-inhibitory concentration (IC50) of 20 nM. As for `C=CC(=O)N(C)CC#Cc1c(N)ncnc1-c1cc(C)cc(-n2ccc3cc(C4CC4)cc(F)c3c2=O)c1C` [Example 8, N-(3-(4-amino-6-(3-(6-cyclopropyl-8-fluoro-1-oxoisoquinolin-2(1H)-yl)-2,5-dimethylphenyl)pyrimidin-5-yl)prop-2-yn-1-yl)-N-methylacrylamide], the figure is 3.4 nM; as for `C=CC(=O)NCC#Cc1c(N)ncnc1-c1cc(F)cc(-n2ccc3cc(C4CC4)cc(F)c3c2=O)c1C` [Example 9, N-(3-(4-amino-6-(3-(6-cyclopropyl-8-fluoro-1-oxoisoquinolin-2(1H)-yl)-5-fluoro-2-methylphenyl)pyrimidin-5-yl)prop-2-yn-1-yl)acrylamide], 34 nM. Consider `C=CC(=O)N(C)CC#Cc1c(N)ncnc1-c1cc(F)cc(-n2ncc3cc(C(C)(C)C)cc(F)c3c2=O)c1` [Example 10, N-(3-(4-amino-6-(3-(6-(tert-butyl)-8-fluoro-1-oxophthalazin-2-(1H)-yl)-5-fluorophenyl)pyrimidin-5-yl)prop-2-yn-1-yl)-N-methylacrylamide], for which the IC50 was 2.3 nM.

As for `C=CC(=O)N(C)CC#Cc1c(N)ncnc1-c1cc(F)cc(-n2ncc3cc(C4CC4)ccc3c2=O)c1C` [Example 11, N-(3-(4-amino-6-(3-(6-cyclopropyl-1-oxophthalazin-2(1H)-yl)-5-fluoro-2-methylphenyl)pyrimidin-5-yl)prop-2-yn-1-yl)-N-methylacrylamide], the IC50 was 10 nM. With `C=CC(=O)N(C)CC#Cc1c(N)ncnc1-c1cc(F)cc(-n2ncc3cc(C4CC4)cc(F)c3c2=O)c1C` [Example 12, N-(3-(4-amino-6-(3-(6-cyclopropyl-8-fluoro-1-oxophthalazin-2(1H)-yl)-5-fluoro-2-methylphenyl)pyrimidin-6-yl)prop-2-yn-1-yl)-N-methylacrylamide] the figure was 4.9 nM; with `C=CC(=O)N(C)CC#Cc1c(N)ncnc1-c1cc(F)cc(-n2ncc3cc(C(C)(C)C)cc(F)c3c2=O)c1C` [Example 13], 44 nM.

Consider `C=CC(=O)N(C)CC#Cc1c(N)ncnc1-c1cc(F)cc(-n2ncc3cc(C(C)(C)C)ccc3c2=O)c1` [Example 14], for which the half-maximal inhibitory concentration (IC50) was determined as 24 nM. In turn, `C=CC(=O)N(C)CC#Cc1c(N)ncnc1-c1cc(F)cc(-n2cnc3cc(C4CC4)cc(F)c3c2=O)c1` [Example 15, N-(3-(4-amino-6-(3-(7-cyclopropyl-5-fluoro-4-oxoquinazolin-3(4H)-yl)-5-fluorophenyl)pyrimidin-5-yl)prop-2-yn-1-yl)-N-methylacrylamide] came in with an IC50 of 34 nM. `C=CC(=O)N1CCC[C@@H]1C#Cc1c(N)ncnc1-c1cc(F)cc(-n2ccc3cc(C4CC4)cc(F)c3c2=O)c1C` [Example 16, (R)-2-(3-(5-((1-acryloylpyrrolidin-2-yl)ethynyl)-6-aminopyrimidin-4-yl)-5-fluoro-2-methylphenyl)-6-cyclopropyl-8-fluoroisoquinolin-1-(2H)-one]: inhibition was half-maximal at 29 nM (IC50). In the case of `C=CC(=O)N1CCC[C@H]1C#Cc1c(N)ncnc1-c1cc(F)cc(-n2ccc3cc(C4CC4)cc(F)c3c2=O)c1C` [Example 17, (S)-2-(3-(5-((1-acryloylpyrrolidin-2-yl)ethynyl)-6-aminopyrimidin-4-yl)-6-fluoro-2-methylphenyl)-6-cyclopropyl-8-fluoroisoquinolin-1-(2H)-one], the IC50 was determined as 4.1 nM.

The compound `C=CC(=O)N1CCC[C@H]1C#Cc1c(N)ncnc1-c1cc(F)cc(-n2ccc3cc(C(C)C)cc(F)c3c2=O)c1C` [Example 18, (S)-2-(3-(5-((1-acryloylpyrrolidin-2-yl)ethynyl)-6-aminopyrimidin-4-yl)-6-fluoro-2-methylphenyl)-8-fluoro-6-isoquinolin-1-(2H)-one] displayed a concentration for half-maximal inhibition (IC50) of 9.7 nM. In turn, `C=C(F)C(=O)N1CCC[C@H]1C#Cc1c(N)ncnc1-c1cc(F)cc(-n2ccc3cc(C4CC4)cc(F)c3c2=O)c1C` [Example 19, (S)-2-(3-(6-amino-5-((1-(2-fluoroacryloyl)pyrrolidin-2-yl)ethynyl)pyrimidin-4-yl)-5-fluoro-2-methylphenyl)-6-cyclopropyl-8-fluoroisoquinolin-1(2H)-one] had a half-maximal inhibitory concentration (IC50) of 201 nM. Regarding `C=C(Cl)C(=O)N1CCC[C@H]1C#Cc1c(N)ncnc1-c1cc(F)cc(-n2ccc3cc(C4CC4)cc(F)c3c2=O)c1C` [Example 20, (S)-2-(3-(6-amino-5-((1-(2-chloroacryloyl)pyrrolidin-2-yl)ethynyl)pyrimidin-4-yl)-5-fluoro-2-methylphenyl)-6-cyclopropyl-8-fluoroisoquinolin-1(2H)-one], inhibition was half-maximal at 16 nM (IC50). With `C=CC(=O)N1CCCCC1C#Cc1c(N)ncnc1-c1cc(F)cc(-n2ccc3cc(C4CC4)cc(F)c3c2=O)c1C` (stereo not shown) [Example 22, 2-(3-(5-((1-acryloylpiperidin-2-yl)ethynyl)-6-aminopyrimidin-4-yl)-5-fluoro-2-methylphenyl)-6-cyclopropyl-8-isoquinolin-1(2H)-one] the figure was 5.7 nM. With `C=CC(=O)N1CCCC[C@H]1C#Cc1c(N)ncnc1-c1cc(F)cc(-n2ccc3cc(C4CC4)cc(F)c3c2=O)c1C` [Example 23] the figure was 8.7 nM.
